Measurements: patent US11938198B2, “Treatment of heart disease by disruption of the anchoring of PP2A” (University of Miami, priority 2019, dated 2024)

Legend:
PDE4D3 Ser-54 = PDE4D3 Ser-54 phosphorylation in mAKAP immunoprecipitates from transfected HEK293 cells (phospho-specific immunoblot); assay type: cell-based
[1] = tested on: adult rat ventricular myocytes (ARVM); test: ARVM morphologic hypertrophy (cell width and length by immunocytochemistry); assay type: cell-based; settings: for PE-induced ARVM hypertrophy / basal ARVM morphology: adenoviral expression; for PE-induced ARVM hypertrophy: 20 μM PE 24 hours; for basal ARVM morphology: no drug
Procedure: Adult rat ventricular myocyte isolation and culture: 2-3 month old rats were anesthetized using Ketamine (80-100 mg/kg) and Xylazine (5-10 mg/kg) IP following 1000 U heparinization for cardiac excision. The heart was transferred immediately into chilled perfusion buffer (NaCl 120 mM, KCl 5.4 mM, Na2HPO4·7H2O 1.2 mM, NaHCO320.0 mM, MgCl2·6H2O 1.6 mM, Taurine 5 mM, Glucose 5.6 mM, 2,3-Butanedione monoxime 10 mM) pre-equilibrated with 95% O2 and 5% CO2. After removal of extraneous tissue, the heart was attached via the aorta to a Harvard Langendorff apparatus cannula. Ca^2+-free perfusion was used to flush out remaining blood with a constant rate of 8-10 mL/min at 37° C. The heart was then digested through circulatory perfusion with 50 mL perfusion buffer containing 125 mg type II collagenase (Worthington, 245 U/mg), 0.1 mg protease (Sigma type XIV) and 0.1% BSA. After perfusion, the atria were removed and the ventricular myocytes dissociated by slicing and repetitive pipetting. The debris was filtered by a 200 μm nylon mesh, and the myocytes collected by one minute centrifugation at 50 g. Ca^2+ concentration in the buffer was gradually recovered to 1.8 mM and the myocytes were resuspended in ACCT medium (M199 Medium (Invitrogen 11150-059), Creatine 5 mM, L-carnitine 2 mM, Taurine 5 mM, HEPES 25 mM, 2,3-Butanedione monoxime 10 mM, BSA 0.2% and 1×Insulin-Transferrin-Selenium Supplement) and plated on 10 μg/ml laminin pre-coated dishes. Cells were washed with ACCT medium 1.5 hours after plating and subjected to adenoviral infection or siRNA transfection, in which 100-200 Multiplicity of Infection (MOI) of adenovirus and 100 nmol/L siRNA mixed with Dharmafect1 (Dharmacon) were used, respectively. Adrenergic agonists were added the next day, with biochemical assay and morphological measurement performed after 24 hours of stimulation.
Immunocytochemistry: Myocytes on coverslips were fixed in 3.7% formaldehyde in PBS for 1 hour, permeabilized with 0.3% Triton X-100, and blocked in PBS containing 0.2% BSA and 1% horse serum. The slides were then sequentially incubated for 1 hour with primary and Alexa fluorescent dye-conjugated specific-secondary antibodies (Invitrogen, 1:1000) diluted in blocking buffer. The slips were washed three times with blocking buffer. 1 μg/mL Hoechst 33258 was included in the last wash stop to label nuclei. Slides were sealed in SlowFade Gold antifade buffer (Invitrogen, S36938) for fluorescent microscopy. Wide-field images were acquired using a Leica DM4000 Microscope.

## C=C[C@@]1(C)CC(=O)[C@]2(O)[C@@]3(C)[C@@H](O)CCC(C)(C)[C@@H]3[C@H](O)[C@H](OC(C)=O)[C@@]2(C)O1 [Fsk, forskolin]
PDE4D3 Ser-54; 5 μM Fsk 10 min, in the presence of OA
  further enhancement of PDE4D3 Ser-54 phosphorylation by forskolin: 1.8 fold
PDE4D3 Ser-54; 5 μM Fsk, absence of phosphatase inhibition
  PDE4D3 Ser-54 phosphorylation, forskolin alone: no significant effect

## CC(C)NCC(O)c1ccc(O)c(O)c1 (stereo not drawn) [Iso, isoproterenol, reference compound]
[1]; 10 μM Iso, 24 hours
  ARVM length and width under chronic β-adrenergic stimulation: increased both ARVM length and width

## CNC[C@H](O)c1cccc(O)c1 [PE, phenylephrine, reference compound]
[1]; 20 μM PE, 24 hours
  decrease in ARVM length/width ratio: 8-14%
  increase in ARVM width: 8-10%

B1: SRF S103D: SRF phosphomimetic mutant expressed by adenovirus (protein, UniProt P11831 1-508, looked up, variant S103D)
Serum response factor: MLPTQAGAAAALGRGSALGGSLNRTPTGRPGGGGGTRGANGGRVPGNGAGLGPGRLEREAAAAAATTPAPTAGALYSGSEGDSESGEEEELGAERRGLKRSLDEMEIGMVVGGPEASAAATGGYGPVSGAVSGAKPGKKTRGRVKIKMEFIDNKLRRYTTFSKRKTGIMKKAYELSTLTGTQVLLLVASETGHVYTFATRKLQPMITSETGKALIQTCLNSPDSPPRSDPTTDQRMSATGFEETDLTYQVSESDSSGETKDTLKPAFTVTNLPGTTSTIQTAPSTSTTMQVSSGPSFPITNYLAPVSASVSPSAVSSANGTVLKSTGSGPVSSGGLMQLPTSFTLMPGGAVAQQVPVQAIQVHQAPQQASPSRDSSTDLTQTSSSGTVTLPATIMTSSVPTTVGGHMMYPSPHAVMYAPTSGLGDGSLTVLNAFSQAPSTMQVSHSQVQEPGGVPQVFLTASSGTVQIPVSAVQLHQMAVIGQQAGSSSNLTELQVVNLDTAHSTKSE
[1]
  PE-induced ARVM hypertrophy: did not enhance nor diminish
  basal ARVM morphology: increased ARVM width

B2: SRF S103A: SRF Ser103-to-alanine mutant expressed by adenovirus (protein, UniProt P11831 1-508, looked up, variant S103A)
Serum response factor: MLPTQAGAAAALGRGSALGGSLNRTPTGRPGGGGGTRGANGGRVPGNGAGLGPGRLEREAAAAAATTPAPTAGALYSGSEGDSESGEEEELGAERRGLKRSLAEMEIGMVVGGPEASAAATGGYGPVSGAVSGAKPGKKTRGRVKIKMEFIDNKLRRYTTFSKRKTGIMKKAYELSTLTGTQVLLLVASETGHVYTFATRKLQPMITSETGKALIQTCLNSPDSPPRSDPTTDQRMSATGFEETDLTYQVSESDSSGETKDTLKPAFTVTNLPGTTSTIQTAPSTSTTMQVSSGPSFPITNYLAPVSASVSPSAVSSANGTVLKSTGSGPVSSGGLMQLPTSFTLMPGGAVAQQVPVQAIQVHQAPQQASPSRDSSTDLTQTSSSGTVTLPATIMTSSVPTTVGGHMMYPSPHAVMYAPTSGLGDGSLTVLNAFSQAPSTMQVSHSQVQEPGGVPQVFLTASSGTVQIPVSAVQLHQMAVIGQQAGSSSNLTELQVVNLDTAHSTKSE
[1]
  PE-induced ARVM hypertrophy: inhibited the PE-induced concentric hypertrophy
  basal ARVM morphology: did not affect basal myocyte size
